Values after ≈ are worked out from the molar mass of the structure shown.
Assays:
[1] = Solubility in water / aqueous solubility of HPPs and parent drugs; settings: water
[2] = Plasma levels after transdermal administration to hairless mice; assay type: in vivo; settings: for t, time to peak plasma level after parent compound: parent compound administered (time when taken orally); for Peak plasma concentration after parent compound: parent compound administered, hairless mice
Experimental: Tested compounds (20% solution or suspension in 1 mL isopropanol) are administered transdermally to the skin of intact hairless mice. The plasma levels of the parent compounds are determined by HPLC.

human skin tissue = settings: human, 20 %, pH 7.4
in vivo = settings: rat
Experimental: The acute toxicity of the prodrug compounds and parent compounds are measured by LD50 of rat.

rats = test: Antipyretic activity, E. coli suspension as pyrogen; assay type: in vivo; settings: in °C (unit assumed)
Experimental: Rats are administered with sterilized E. coli suspension as a pyrogen. Each group of rats are administered with a prodrug compounds or parent compounds at a dosage specified below. The prodrug compounds are administered either orally or transdermally. The parent compounds are administered orally.

mice = test: Analgesic activity, acetic acid writhing; assay type: in vivo; settings: 30 min before acetic acid; for inhibition at 50 mg/kg / inhibition at 100 mg/kg: Mus musculus, po, read-out: % (rate of writhing inhibition)
Experimental: The prodrug compounds are administered either transdermally or orally. The parent compounds are administered orally. The number of writhing that occurred when mice are administered the acetic acid solution are counted, and the rate of inhibition based on the control group which was not pretreated with any test compounds is calculated. […] The A group is the control group.
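For LD50 in this document: acute toxicity in rats expressed as LD50, determined for both prodrugs and their parent compounds.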

SMILES | solubility [1] | t, time to peak plasma level after parent compound [2] | Peak plasma concentration after parent compound [2] | In vitro penetration rate (apparent flux), parent compounds (human skin tissue) | LD50 (in vivo) | body temperature, t = 0 min (rats; 100 mg/kg orally) | body temperature, t = 90 min (rats; 100 mg/kg orally) | body temperature, t = 180 min (rats; 100 mg/kg orally) | body temperature, t = 270 min (rats; 100 mg/kg orally) | body temperature, t = 0 min (rats; 150 mg/kg orally) | body temperature, t = 90 min (rats; 150 mg/kg orally) | body temperature, t = 180 min (rats; 150 mg/kg orally) | body temperature, t = 270 min (rats; 150 mg/kg orally) | No. of Writhing (mice; 50 mg/kg orally) | No. of Writhing (mice; 100 mg/kg orally) | inhibition at 50 mg/kg (mice; 50 mg/kg orally) | inhibition at 100 mg/kg (mice; 100 mg/kg orally)
Cc1ccc(C(=O)c2ccc(CC(=O)O)n2C)cc1 [Tolmetin, tolmetin] | 200 µg/mL (≈ 777 µM) | 1 to 2 h | 0.1 mg/L | 10 μg/cm^2/h | 350 mg/kg |  |  |  |  |  |  |  |  |  |  |  | 
CCc1cccc2c3c([nH]c12)C(CC)(CC(=O)O)OCC3 (stereo not shown) [Etodolac, etodolac] | 100 µg/mL (≈ 348 µM) | 1 to 2 h | 0.1 mg/L | 10 μg/cm^2/h | 460 mg/kg |  |  |  |  |  |  |  |  |  |  |  | 
C=C(C)CNc1ccc(C(C)C(=O)O)cc1 (stereo not shown) [Alminoprofen, alminoprofen] | 100 µg/mL (≈ 456 µM) | 2 to 4 h | 10 mg/L | 30 μg/cm^2/h | 2400 mg/kg |  |  |  |  |  |  |  |  |  |  |  | 
O=C(O)C1CCc2cc(C3CCCCC3)c(Cl)cc21 (stereo not shown) [Clidanac, clidanac] | 100 µg/mL (≈ 359 µM) | 2 to 4 h | 10 mg/L | 40 μg/cm^2/h | 35 mg/kg |  |  |  |  |  |  |  |  |  |  |  | 
Cc1cc(CC(=O)O)n(C)c1C(=O)c1ccc(Cl)cc1 [Zomepirac, zomepirac] | 200 µg/mL (≈ 686 µM) | 1 to 2 h | 0.1 mg/L | 10 μg/cm^2/h | 27 mg/kg |  |  |  |  |  |  |  |  |  |  |  | 
O=C(O)Cc1cn(-c2ccccc2)nc1-c1ccc(Cl)cc1 [Lonazolac, lonazolac, reference compound] | 100 µg/mL (≈ 320 µM) | 1 to 2 h | 0.1 mg/L |  | 1000 mg/kg |  |  |  |  |  |  |  |  |  |  |  | 
O=C(O)c1ccccc1Nc1cccc(C(F)(F)F)c1 [Flufenamic acid, flufenamic acid] | < 100 µg/mL | 2 to 4 h | 0.1 mg/L | 10 μg/cm^2/h | 720 mg/kg |  |  |  |  |  |  |  |  |  |  |  | 
O=C(O)C(Cl)c1ccc(C2CCCCC2)c(Cl)c1 (stereo not shown) [Fenclorac, fenclorac] | 200 µg/mL (≈ 696 µM) | 2 to 4 h | 10 mg/L | 40 μg/cm^2/h | 430 mg/kg |  |  |  |  |  |  |  |  |  |  |  | 
CC(C(=O)O)c1ccc2oc(-c3ccc(Cl)cc3)nc2c1 (stereo not shown) [Benoxaprofen, benoxaprofen] | 100 µg/mL (≈ 331 µM) | 2 to 4 h | 10 mg/L | 40 μg/cm^2/h | 800 mg/kg |  |  |  |  |  |  |  |  |  |  |  | 
CN1C(C(=O)Nc2ccccn2)=C(O)c2ccccc2S1(=O)=O [Piroxicam, piroxicam] | < 100 µg/mL | 2 to 4 h | 0.1 mg/L | <1 μg/cm^2/h | 360 mg/kg |  |  |  |  |  |  |  |  |  |  |  | 
Nc1c(CC(=O)O)cccc1C(=O)c1ccccc1 [Amfenac, amfenac] | 200 µg/mL (≈ 783 µM) | 1 to 2 h | 0.1 mg/L | 10 μg/cm^2/h | 310 mg/kg |  |  |  |  |  |  |  |  |  |  |  | 
CC(=O)Oc1ccccc1C(=O)O [Aspirin, acetylsalicylic acid, reference compound] | 10 µg/mL (≈ 55.5 µM) | ~2 h | 0.1 mg/L | <1 μg/cm^2/h | 1500 mg/kg | 37.22 ± 0.05 | 36.80 ± 0.05 | 36.85 ± 0.05 | 36.81 ± 0.05 | 37.30 ± 0.06 | 36.50 ± 0.05 | 36.59 ± 0.05 | 36.55 ± 0.05 | 18.2 | 13.2 | 45% | 60%
O=C(O)c1cccnc1Nc1cccc(C(F)(F)F)c1 [Niflumic acid, niflumic acid] | < 100 µg/mL | 2 to 4 h | 0.1 mg/L | 10 μg/cm^2/h | 650 mg/kg |  |  |  |  |  |  |  |  |  |  |  | 
O=C(O)Cc1ccccc1Oc1ccc(Cl)cc1Cl [Fenclofenac, fenclofenac] | 100 µg/mL (≈ 337 µM) | 1 to 2 h | 0.1 mg/L | 10 μg/cm^2/h | 2280 mg/kg |  |  |  |  |  |  |  |  |  |  |  | 
COc1ccc2c(c1)c(CC(=O)O)c(C)n2C(=O)c1ccc(Cl)cc1 [Indomethacin, indomethacin] | 100 µg/mL (≈ 279 µM) | 1 to 2 h | 0.1 mg/L | 10 μg/cm^2/h | 13 mg/kg |  |  |  |  |  |  |  |  |  |  |  | 
CC(C(=O)O)c1ccc2c(c1)Cc1cccnc1O2 (stereo not shown) [Pranoprofen, pranoprofen] | 200 µg/mL (≈ 783 µM) | 2 to 4 h | 10 mg/L | 30 μg/cm^2/h | 450 mg/kg |  |  |  |  |  |  |  |  |  |  |  | 
CC(C(=O)O)c1ccc(N2Cc3ccccc3C2=O)cc1 (stereo not shown) [Indoprofen, indoprofen] | 100 µg/mL (≈ 355 µM) | 2 to 4 h | 10 mg/L | 30 μg/cm^2/h | 700 mg/kg |  |  |  |  |  |  |  |  |  |  |  | 
COc1ccc2c(c1)c(CC(=O)OCC(=O)O)c(C)n2C(=O)c1ccc(Cl)cc1 [Acemetacin, acemetacin] | 100 µg/mL (≈ 240 µM) | 1 to 2 h | 0.1 mg/L | 10 μg/cm^2/h | 24 mg/kg |  |  |  |  |  |  |  |  |  |  |  | 
CC(C)Cc1ccc(C(C)C(=O)O)cc1 (stereo not shown) [Ibuprofen, 2-(ρ-isobutylphenyl) propionic acid, reference compound] |  | 1 to 2 h | 2 mg/L | 50 μg/cm^2/h | 1500 mg/kg | 37.25 ± 0.06 | 36.83 ± 0.05 | 36.80 ± 0.08 | 36.78 ± 0.07 | 37.35 ± 0.09 | 36.59 ± 0.07 | 36.53 ± 0.06 | 36.55 ± 0.05 | 17.2 | 13.1 | 50% | 62%
CC(C(=O)O)c1ccc2c(c1)[nH]c1ccc(Cl)cc12 (stereo not shown) [Carprofen, carprofen] | 100 µg/mL (≈ 365 µM) | 2 to 4 h | 10 mg/L | 40 μg/cm^2/h | 400 mg/kg |  |  |  |  |  |  |  |  |  |  |  | 
Cc1cccc(Nc2ccccc2C(=O)O)c1C [Mefenamic acid, mefenamic acid] | < 100 µg/mL | 2 to 4 h | 0.1 mg/L | 10 μg/cm^2/h | 600 mg/kg |  |  |  |  |  |  |  |  |  |  |  | 

From patent US20210353579A1, “HIGH PENETRATION COMPOSITIONS AND USES THEREOF” (Techfields Pharma Co., Ltd., priority 2006, published 2021)
